Laboratory results from paper PMC12514245, “Impaired migration and lung invasion of human melanoma by a novel small molecule targeting the transmembrane domain of death receptor p75^NTR” (EMBO Molecular Medicine, 2025).
Values joined by “and” are separate entries in the source; they are usually repeats but may differ in a detail not shown here. Equal entries are not always repeated.

Legend:
[1] = test system: melanoma tumor; set-up: method as in Goh et al, 2018; settings: ref Goh et al, 2018; cited from earlier work
[2] = test system: neurons and melanoma cells; set-up: method as in Goh et al, 2018; settings: dependent on p75NTR and JNK activity; ref Goh et al, 2018; cited from earlier work
[3] = target: T1, fascin/p75^NTR interaction (Homo sapiens, UniProt P08138); test: Co-immunoprecipitation of fascin with p75NTR in A875 cells; type: cell-based; settings: NGF, experiments 1-3
T1 construct: endogenous in cells; host or cells: A875-NT (and A875 sh-p75NTR knock-down control)
T1 sequence (P08138 29-427): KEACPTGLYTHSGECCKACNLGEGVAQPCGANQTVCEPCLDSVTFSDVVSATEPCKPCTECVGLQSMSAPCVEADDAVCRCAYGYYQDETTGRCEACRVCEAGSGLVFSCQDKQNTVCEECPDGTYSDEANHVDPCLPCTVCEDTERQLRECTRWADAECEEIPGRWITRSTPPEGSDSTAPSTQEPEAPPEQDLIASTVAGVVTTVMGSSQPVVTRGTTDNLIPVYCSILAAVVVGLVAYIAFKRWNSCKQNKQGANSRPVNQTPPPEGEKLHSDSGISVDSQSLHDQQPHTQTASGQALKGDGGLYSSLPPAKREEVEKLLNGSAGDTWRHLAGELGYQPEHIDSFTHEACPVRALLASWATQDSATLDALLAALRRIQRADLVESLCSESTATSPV
Procedure: For co-immunoprecipitation analysis of p75^NTR/fascin interactions, A875 sh-p75^NTR and A875-NT cells were plated in a 10 cm tissue culture dish at a confluency of 3 × 10^6 cells/dish in normal growth media. Twenty-four hours after plating, the cells were treated with 1 μM 4A22 and NGF (100 ng/ml) for 12 h prior to harvest and lysis in lysis buffer (50 mM Tris/HCl pH 7.5, 1 mM EDTA, 270 mM Sucrose, 1% (v/v) Triton X-100, 0.1% (v/v) 2-mercaptoethanol and 60 mM n-Octyl-β-D glucopyranoside) containing protease inhibitor cocktail. The cellular extracts were then centrifuged at 4 °C top speed on a benchtop centrifuge for 1 min and the supernatant was collected. For immunoprecipitation, A875 cell extracts were incubated for 16 h at 4 °C on a rotating wheel with 0.8 μg of anti-p75^NTR antibody (ANT-007, Alomone) and then incubated with Sepharose protein-G beads (GE Healthcare). The beads were collected by brief centrifugation (2 min, 2500 rpm, 4 °C), washed three times with 1 ml of Wash Buffer (with composition same as the lysis buffer). After the last wash, pelleted beads were aspirated off the wash buffer followed by addition of Laemmli sample buffer and analysis by SDS–PAGE followed by Western Blot using anti-fascin antibody (MA5-11483, Invitrogen).

[4] = test system: A875 NT cells; test: Filopodia per cell (phalloidin staining), A875 NT; type: cell-based, human
Procedure: (§1) For assessment of actin filaments, A875 cells were plated on glass coverslips in 24-well plate at a confluency of 3 × 10^4 cells/well. One day after plating, the cells were treated with 1 μM or 5 μM Np75-4A22 and NGF (100 ng/ml) or PBS for 24 h. Cells were fixed in 4% paraformaldehyde, permeabilized in 0.1% Triton-X-100, stained with Phalloidin-iFluor 488 (Abcam) at 1:2000 dilution and DAPI for 1 h. Coverslips were mounted and visualized in a laser confocal microscope.

[5] = test system: A875 shp75 cells; test: Filopodia per cell (phalloidin staining), A875 shp75; type: cell-based, human; settings: for filopodia per cell (well mean): A875 shp75 cells, wells 1-4
Procedure: as §1

[6] = test system: WM115 cells; test: Boyden chamber chemotaxis assay, WM115; type: cell-based, human; settings: 100 ng/ml NGF
Procedure: For Boyden chamber assay, Corning® BioCoat™ Matrigel® Invasion Chambers 8.0 µm PET Membrane were used (cat. no. 354480). A875 NT or WM115 cells were serum-starved for 16 h and then seeded at 60,000 cells per well in serum-free media under different conditions, including DMSO (vehicle) or small molecules Div17E5 or Np75-4A22 at different concentrations to the top chamber of the Matrigel-coated trans-well chamber. The pan-caspase inhibitor Q_VD_poH (at 5 µM) was also introduced in the top chamber in some experiments. Two different chemoattractants, NGF (at 50 ng/ml or 100 ng/ml as indicated) or 10% FBS were added to the bottom chamber. Assays were carried out for 8 h after which filters were fixed in 4% PFA and stained with DAPI. Cells that had remained on the top of the filter were gently scrapped away with a cotton tip. The filter lower side was imaged on an inverted fluorescence microscope and counted using ImageJ software (NIH).

[7] = test system: A875 shp75 cells; test: Boyden chamber chemotaxis assay, A875 shp75; type: cell-based, human; settings: NGF as chemoattractant
[8] = test system: fascin in Triton-insoluble fraction of A875 NT cells; test: Detergent-insolubility assay of fascin, A875 NT; type: cell-based, human; settings: NGF; insoluble/total fascin, n1-n3
Procedure: A single cell suspension was obtained by trypsinization followed by centrifugation and detergent extraction with lysis buffer (with 0.5% Triton X-100). Then, immediately centrifuged at 8700 g for 3 min. The resulting pellets (containing the Triton X-100-resistant proteins) were suspended in lysis buffer without Triton X-100. In parallel, cells were centrifuged and then directly suspended in lysis buffer. The Triton X-100- resistant proteins and total cell lysates were analyzed by SDS–PAGE and Western blotting with anti-fascin antibody.

FASCIN/P75 [3]	FASCIN/P75 Fold change ([3]; relative to UT)	Compound	melanoma tumor growth [1]	apoptotic cell death [2]	Filopodia per cell, mean of experiment ([4]; 100 ng/ml NGF alone, A875 NT, EXP1-EXP3)	Filopodia per cell, mean of three experiments ([4]; 100 ng/ml NGF alone, A875 NT, mean of EXP1-3)	Filopodia per cell, mean of well ([4]; 100 ng/ml NGF alone, A875 NT, well mean)	Filopodia per cell, mean of the well ([4]; 100 ng/ml NGF, EXP1 NT, well mean)	filopodia per cell (mean of 3 experiments) ([5]; A875 shp75, 100ng/ml NGF)	filopodia per cell (mean of one experiment) ([5]; A875 shp75, 100ng/ml NGF, EXP1-EXP3)	filopodia per cell (well mean) ([5]; EXP1, 100 ng/ml NGF)	filopodia per cell (well mean) ([5]; EXP2, 100 ng/ml NGF)	values normalized to vehicle, mean (Figure 6E) ([6]; mean of EXP1-3)	values normalized to vehicle (Figure 6E) ([6]; single experiments EXP1-3)	Fold change (invading cells), n1-n4 [7]	Fold change (invading cells), Mean ([7]; N=4) [Fold]	Fold change (compared to untreated cells) [8]
–	–	O=C(/C=C/c1cccnc1)c1ccccc1O [NSC49652]	inhibited melanoma tumor growth	triggered apoptotic cell death	–	–	–	–	–	–	–	–	–	–	–	–	–
0.1943 and 0.2161 and 0.2851	1.97 and 2.116 and 1.36	NGF: nerve growth factor, neurotrophin ligand of p75NTR, used as chemoattractant	–	–	50.0863 and 44.7441 and 46.2718	47.0341	36.2857 and 52.7857 and 51.5714 and 47.2222 and 38.6667 and 55.1429 and 44.0556	59.8571 and 51.381 and 46.8571 and 42.25	33.6544	32.2411 and 36.1597 and 32.5625	25.2143 and 35.5 and 37.1667 and 31.0833	37 and 30.3889 and 32.6667 and 44.5833	1.5693	1.456 and 1.588 and 1.664	0.89 Fold and 1.06 Fold and 1.42 Fold and 1.05 Fold	1.110	3.421 and 2.292 and 2.425
